Read-outs that look alike come from different tables or passages of the source.
Legend:
human BCL6 BTB domain = human BCL6 BTB domain (Homo sapiens, UniProt P41182); test: BCL6 TR-FRET assay; assay type: binding
Description: 1. Supplementary experimental: protein production, purification and crystallography 1.1 BCL6 constructs used for assays and crystallography […]
cleavage site. For the TR-FRET assay, the Trx-6His-HRV3C-BCL6 protein construct was used without cleaving the tag, as a 6His was needed to bind to the anti-6His-Terbium antibody. […]
For both plasmid constructs described above, transformed BL21-AI E. coli cells were grown in LB media […]
Expression was carried out at 18 °C for 18 hours. Cells were harvested by centrifugation (5500 g for 30 minutes at 4 °C) and stored at -80 °C.
Cells were re-suspended in a buffer composed of 20 mM Tris pH 8, 250 mM NaCl, 1 mM MgCl2, 0.5 mM […]
lysed by sonication followed by centrifugation at 21,000 g for 45 minutes at 4 °C. […]
ResourceQ and gel filtration using a HiLoad 26/60 Superdex75 column in a buffer containing 20 mM HEPES […]
The final protein was assessed for purity and molar mass by SDS-PAGE and high-resolution mass spectrometry, respectively.
For the uncleaved Trx-6His-HRV3C-BCL6 protein construct to be used in TR-FRET, the protein was directly eluted from the HisTrap FF column without HRV-3C treatment, and submitted to Superdex75 gel filtration […]
Test compounds in DMSO or DMSO alone […]
concentration in 0.7% v/v DMSO final. […]

EDNRA [1] = target: T1, EDNRA (Homo sapiens, UniProt P25101); test: SAFETYscan Calcium Flux EDNRA Agonist; assay type: cell-based
T1 sequence (P25101 21-427): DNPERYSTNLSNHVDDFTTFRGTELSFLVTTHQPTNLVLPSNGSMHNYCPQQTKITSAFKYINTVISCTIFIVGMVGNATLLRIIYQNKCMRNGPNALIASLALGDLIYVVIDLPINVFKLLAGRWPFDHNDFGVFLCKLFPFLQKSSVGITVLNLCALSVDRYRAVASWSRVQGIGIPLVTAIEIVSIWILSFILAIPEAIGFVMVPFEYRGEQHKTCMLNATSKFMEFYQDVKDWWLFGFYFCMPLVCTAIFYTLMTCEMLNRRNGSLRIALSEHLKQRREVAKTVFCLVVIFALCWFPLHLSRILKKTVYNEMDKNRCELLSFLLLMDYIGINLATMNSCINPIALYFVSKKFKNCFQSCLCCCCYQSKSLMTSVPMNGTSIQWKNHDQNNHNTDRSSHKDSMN
Text: (§1) Supplement jm3c00155_si_002.xlsx, sheet "SAFETYScan" | column: RC50 (uM); Max Response

CHRM3 = CHRM3 (Homo sapiens, UniProt P20309); test: SAFETYscan Calcium Flux CHRM3 Antagonist; assay type: cell-based
Text: as §1

EDNRA [2] = target: T1, EDNRA; test: SAFETYscan Calcium Flux EDNRA Antagonist; assay type: cell-based
Text: as §1

ADRA2A = target: T2, ADRA2A (Homo sapiens, UniProt P08913); test: SAFETYscan cAMP ADRA2A Agonist; assay type: cell-based
T2 sequence (P08913 1-465): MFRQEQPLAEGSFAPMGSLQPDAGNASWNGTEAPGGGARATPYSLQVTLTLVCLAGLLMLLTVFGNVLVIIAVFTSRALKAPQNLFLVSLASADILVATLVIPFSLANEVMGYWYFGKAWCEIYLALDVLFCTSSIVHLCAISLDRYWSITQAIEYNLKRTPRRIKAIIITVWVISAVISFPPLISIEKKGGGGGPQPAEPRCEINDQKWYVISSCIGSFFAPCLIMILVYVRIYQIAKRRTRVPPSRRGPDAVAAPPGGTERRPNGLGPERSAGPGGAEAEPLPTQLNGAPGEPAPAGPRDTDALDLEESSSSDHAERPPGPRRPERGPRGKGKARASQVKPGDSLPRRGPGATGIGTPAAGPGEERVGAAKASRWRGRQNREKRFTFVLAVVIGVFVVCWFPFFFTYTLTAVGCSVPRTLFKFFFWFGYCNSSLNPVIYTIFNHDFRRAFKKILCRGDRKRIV
Text: as §1

OPRD1 = OPRD1 (Homo sapiens, UniProt P41143); test: SAFETYscan cAMP OPRD1 Antagonist; assay type: cell-based
Text: as §1

MAOA = MAOA (Homo sapiens, UniProt P21397); test: SAFETYscan Enzymatic MAOA Inhibitor; assay type: biochemical
Text: as §1

Sequence of CHRM3 (P20309 whole entry): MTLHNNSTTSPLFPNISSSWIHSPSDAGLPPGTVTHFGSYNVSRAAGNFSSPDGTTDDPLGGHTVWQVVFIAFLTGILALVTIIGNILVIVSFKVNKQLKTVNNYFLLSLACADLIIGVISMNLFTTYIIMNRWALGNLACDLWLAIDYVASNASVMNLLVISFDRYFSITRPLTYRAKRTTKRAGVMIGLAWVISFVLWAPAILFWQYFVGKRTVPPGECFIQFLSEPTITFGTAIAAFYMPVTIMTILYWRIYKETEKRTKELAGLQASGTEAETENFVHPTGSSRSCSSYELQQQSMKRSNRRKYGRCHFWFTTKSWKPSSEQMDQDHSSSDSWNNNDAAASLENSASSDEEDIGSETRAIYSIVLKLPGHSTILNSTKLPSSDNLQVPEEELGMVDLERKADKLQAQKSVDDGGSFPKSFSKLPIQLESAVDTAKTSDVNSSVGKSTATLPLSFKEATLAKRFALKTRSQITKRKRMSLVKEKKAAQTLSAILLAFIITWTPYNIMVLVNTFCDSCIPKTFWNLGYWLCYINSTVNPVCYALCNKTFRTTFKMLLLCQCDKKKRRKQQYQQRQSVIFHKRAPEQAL
Sequence of OPRD1 (P41143 whole entry): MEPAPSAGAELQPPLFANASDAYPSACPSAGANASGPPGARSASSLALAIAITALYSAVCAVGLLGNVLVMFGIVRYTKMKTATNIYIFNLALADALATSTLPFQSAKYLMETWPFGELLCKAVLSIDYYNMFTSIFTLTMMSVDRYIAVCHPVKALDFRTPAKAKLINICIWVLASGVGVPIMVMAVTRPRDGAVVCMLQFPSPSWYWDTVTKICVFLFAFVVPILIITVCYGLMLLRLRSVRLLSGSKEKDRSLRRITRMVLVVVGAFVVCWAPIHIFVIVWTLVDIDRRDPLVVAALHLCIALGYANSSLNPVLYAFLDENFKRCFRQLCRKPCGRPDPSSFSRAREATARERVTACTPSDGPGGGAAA
Sequence of MAOA (P21397 whole entry, species assumed): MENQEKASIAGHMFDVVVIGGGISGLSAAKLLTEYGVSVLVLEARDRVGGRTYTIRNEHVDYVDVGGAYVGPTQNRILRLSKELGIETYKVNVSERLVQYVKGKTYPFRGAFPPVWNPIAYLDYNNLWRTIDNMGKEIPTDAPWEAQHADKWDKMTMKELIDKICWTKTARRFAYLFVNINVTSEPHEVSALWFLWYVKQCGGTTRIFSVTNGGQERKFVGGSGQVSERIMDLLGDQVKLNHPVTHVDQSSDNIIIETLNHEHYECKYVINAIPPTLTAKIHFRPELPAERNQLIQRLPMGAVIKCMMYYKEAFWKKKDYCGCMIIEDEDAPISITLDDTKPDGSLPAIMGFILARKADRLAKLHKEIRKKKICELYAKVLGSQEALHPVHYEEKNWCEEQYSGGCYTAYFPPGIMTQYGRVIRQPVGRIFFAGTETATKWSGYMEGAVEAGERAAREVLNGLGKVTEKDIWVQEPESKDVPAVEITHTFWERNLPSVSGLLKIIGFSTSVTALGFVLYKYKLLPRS

Cn1c(=O)c2c(c3cc(Nc4ccnc(F)c4Cl)ccc31)N[C@@H](C1CC1)C(F)(F)CO2 [compound 17, (S)-10-((3-chloro-2-fluoropyridin-4-yl)amino)-2-cyclopropyl-3,3-difluoro-7-methyl-1,2,3,4-tetrahydro-[1,4]oxazepino[2,3-c]quinolin-6(7H)-one]
BCL6 TR-FRET pIC50 mean (human BCL6 BTB domain; Table S1): 8.2095 | IC90 (human BCL6 BTB domain; Table S1, read-out: BCL6 TR-FRET IC90 Geometric Mean): 0.0567 µM | IC50 (human BCL6 BTB domain; geometric mean of at least three replicates, read-out: BCL6 TR-FRET IC50): 0.006 µM | IC50 (human BCL6 BTB domain; supplement, read-out: BCL6 TR-FRET IC50 Geometric Mean): 0.0062 µM | Emax (EDNRA [1]; read-out: Max Response): 0% | EC50 (EDNRA [1]; read-out: RC50 (EC50)): > 10 µM | IC50 (CHRM3): > 10 µM | Emax (CHRM3; CHRM3, Calcium Flux, Antagonist, read-out: Max Response): 1.21% | Emax (EDNRA [2]; read-out: Max Response): 0% | IC50 (EDNRA [2]; read-out: RC50 (IC50)): > 10 µM | EC50 (ADRA2A): > 10 µM | Emax (ADRA2A; ADRA2A, cAMP, Agonist, read-out: Max Response): 38.9% | IC50 (OPRD1): > 10 µM | Emax (OPRD1; OPRD1, cAMP, Antagonist, read-out: Max Response): 46% | Emax (MAOA; read-out: Max Response): 0% | IC50 (MAOA; read-out: RC50 (IC50)): > 10 µM
